The results in this text go back to ChEMBL document CHEMBL3045100, “Comparative molecular similarity indices analysis of some 1-substituted imidazole analogs as Candida albicans P450-demethylase inhibitors” (2013).

Values after ≈ are worked out from the molar mass of the structure shown.

The test system of this experiment is Candida albicans. Kind of experiment: Antifungal activity against Candida albicans assessed as growth inhibition. The format is functional. The settings on record: for MIC: Candida albicans.

A word on the MIC: it is the lowest concentration that inhibits growth of the organism. For `Cc1nccn1CC(=O)Nc1cccc(O)c1`, the “-logMIC” value was 2.9 and the MIC was found to be 800 µg/mL (≈ 3460 µM).

As for `COc1ccc(NC(=S)Nn2ccnc2-c2ccc(Cl)cc2)cc1`, the “-logMIC” value was 2.02 and the MIC worked out at 100 µg/mL (≈ 279 µM).

With `Cc1ccc(NC(=S)Nn2c(-c3ccc([N+](=O)[O-])cc3)cnc2S)cc1`, the “-logMIC” value was determined as 0.6 and the minimal inhibitory concentration (MIC) was 3.91 µg/mL (≈ 10.1 µM).

With `Cc1ccc(NC(=S)Nn2ccnc2-c2ccc(Cl)cc2)cc1`, the “-logMIC” value was found to be 2.69 and the MIC was found to be 500 µg/mL (≈ 1460 µM).

As to `Cc1ccccc1NC(=S)Nn1ccnc1-c1ccc(Br)cc1`, the “-logMIC” value is given as 2.01 and the MIC was 100 µg/mL (≈ 258 µM).

In the case of `Cc1ncc([N+](=O)[O-])n1C(C)C(=O)Nc1cccc(O)c1` (configuration not stated), the “-logMIC” value was determined as 2.6 and the minimum inhibitory concentration (MIC) turned out to be 400 µg/mL (≈ 1380 µM).

Consider `Cc1nc([N+](=O)[O-])cn1CCC(=O)Nc1cccc2ccccc12`, for which the “-logMIC” value came to 2.74 and the minimal inhibitory concentration (MIC) came to 500 µg/mL (≈ 1540 µM).

Turning to `Cc1nccn1CC(O)c1ccc(Cl)cc1` (configuration not stated), the “-logMIC” value is 2.31 and the minimal inhibitory concentration (MIC) is 200 µg/mL (≈ 845 µM).

For the compound `Cc1nc([N+](=O)[O-])cn1CCC(=O)Nc1ccccc1Cl`, the “-logMIC” value is recorded as 2.93 and the minimal inhibitory concentration (MIC) stood at 1000 µg/mL (≈ 3240 µM).

Regarding `Cc1ncc([N+](=O)[O-])n1CCOC(Cc1cccs1)c1ccccc1` (configuration not stated), the “-logMIC” value was 2.6 and the MIC was 400 µg/mL (≈ 1120 µM).

As to `OC(Cn1ccnc1)c1ccc(Br)cc1` (configuration not stated), the “-logMIC” value is on record as 2.3 and the MIC worked out at 200 µg/mL (≈ 749 µM).

For the compound `Cc1nc([N+](=O)[O-])cn1CCC(=O)Nc1cccc(Cl)c1`, the “-logMIC” value worked out at 2.71 and the minimum inhibitory concentration (MIC) came to 500 µg/mL (≈ 1620 µM).

With `Cc1ccc(NC(=S)Nn2ccnc2-c2ccc(Br)cc2)cc1`, the “-logMIC” value is 2.41 and the minimum inhibitory concentration (MIC) was found to be 250 µg/mL (≈ 645 µM).

In the case of `Cc1ncc([N+](=O)[O-])n1CC(=O)CNc1ccc(Cl)cc1`, the “-logMIC” value was 2.6 and the MIC is 800 µg/mL (≈ 2590 µM).

As to `O=C(Cn1ccnc1)Nc1cccc(O)c1`, the “-logMIC” value is given as 2.9 and the MIC was 800 µg/mL (≈ 3680 µM).

On to `Cc1ccccc1NC(=S)Nn1ccnc1-c1ccc(Cl)cc1`, for which the “-logMIC” value came to 2.03 and the MIC worked out at 100 µg/mL (≈ 292 µM).

`Cc1ncc([N+](=O)[O-])n1CN(C(C)C)C(C)C`: the “-logMIC” value is 2 and the MIC came to 100 µg/mL (≈ 416 µM).

Turning to `O=C(CCn1ccnc1)Nc1cccc(O)c1`, the “-logMIC” value is 2.9 and the MIC was 800 µg/mL (≈ 3460 µM).

Turning to `Cc1ccc(NCn2c([N+](=O)[O-])cnc2C)cc1`, the “-logMIC” value was determined as 1.98 and the minimal inhibitory concentration (MIC) stood at 100 µg/mL (≈ 406 µM).

Regarding `Cc1nc([N+](=O)[O-])cn1CCC(=O)Nc1ccccc1`, the “-logMIC” value is recorded as 3 and the MIC is 1000 µg/mL (≈ 3650 µM).

Regarding `Cc1ncc([N+](=O)[O-])n1CCNc1ccccc1[N+](=O)[O-]`, the “-logMIC” value is 2 and the MIC came to 100 µg/mL (≈ 343 µM).

As for `Cc1ccc(NCC(=O)Cn2cc([N+](=O)[O-])nc2C)cc1`, the “-logMIC” value is recorded as 2.6 and the MIC was 400 µg/mL (≈ 1390 µM).

`O=C(Cn1ccnc1)c1ccc(Br)cc1`: the “-logMIC” value was determined as 2.3 and the MIC was determined as 250 µg/mL (≈ 943 µM).

As to `Cc1nccn1CC(=O)c1ccc([N+](=O)[O-])cc1`, the “-logMIC” value stood at 2.9 and the MIC amounted to 200 µg/mL (≈ 816 µM).

On to `Cc1nccn1CCC(=O)Nc1cccc(O)c1`, for which the “-logMIC” value is listed as 2.9 and the MIC stood at 800 µg/mL (≈ 3260 µM).

On to `Cc1nccn1CC(O)c1ccc(-c2ccccc2)cc1` (configuration not stated), for which the “-logMIC” value was 2.33 and the minimum inhibitory concentration (MIC) was 200 µg/mL (≈ 719 µM).

As to `COc1ccc(NC(=S)Nn2ccnc2-c2ccc(Br)cc2)cc1`, the “-logMIC” value was determined as 2 and the MIC came out at 100 µg/mL (≈ 248 µM).

With `COc1ccc(NC(=S)Nn2c(-c3ccc([N+](=O)[O-])cc3)cnc2S)cc1`, the “-logMIC” value was determined as 0.29 and the minimum inhibitory concentration (MIC) is 1.95 µg/mL (≈ 4.86 µM).

As to `Cc1nc([N+](=O)[O-])cn1CCC(=O)Nc1c(Br)cc(Br)cc1Br`, the “-logMIC” value worked out at 2.64 and the minimal inhibitory concentration (MIC) worked out at 500 µg/mL (≈ 979 µM).

Consider `COc1ccccc1NC(=S)Nn1ccnc1-c1ccc(Cl)cc1`, for which the “-logMIC” value was found to be 1.97 and the MIC is 100 µg/mL (≈ 279 µM).

In the case of `Cc1ncc([N+](=O)[O-])n1CCC(=O)Nc1cccc(O)c1`, the “-logMIC” value came out at 2.9 and the minimum inhibitory concentration (MIC) was 800 µg/mL (≈ 2760 µM).

As for `OC(Cn1ccnc1)c1ccc(Cl)cc1` (configuration not stated), the “-logMIC” value was 2.4 and the minimum inhibitory concentration (MIC) was 250 µg/mL (≈ 1120 µM).

With `S=C(Nc1cccc2ccccc12)Nn1ccnc1-c1ccc(Cl)cc1`, the “-logMIC” value stood at 2.42 and the MIC worked out at 250 µg/mL (≈ 660 µM).

Take `Cc1ncc([N+](=O)[O-])n1CCOC(c1ccccc1)c1cnccn1` (configuration not stated): the “-logMIC” value amounted to 2.6 and the MIC is 400 µg/mL (≈ 1180 µM).

In the case of `COc1ccccc1NCC(=O)Cn1cc([N+](=O)[O-])nc1C`, the “-logMIC” value is 2.6 and the MIC stood at 400 µg/mL (≈ 1310 µM).

Turning to `Cc1nc([N+](=O)[O-])cn1CC(=O)CNc1cccc(Cl)c1`, the “-logMIC” value is recorded as 2.6 and the minimum inhibitory concentration (MIC) amounted to 400 µg/mL (≈ 1300 µM).

As to `Cc1ncc([N+](=O)[O-])n1CCOC(c1ccccc1)c1ccccc1S` (configuration not stated), the “-logMIC” value is 2.6 and the MIC worked out at 400 µg/mL (≈ 1080 µM).

Consider `Cc1ncc([N+](=O)[O-])n1CC(O)COc1cccc2ccccc12` (configuration not stated), for which the “-logMIC” value was 2.06 and the MIC was found to be 100 µg/mL (≈ 305 µM).

For `CCCNCCn1c([N+](=O)[O-])cnc1C`, the “-logMIC” value amounted to 1.68 and the MIC was 50 µg/mL (≈ 236 µM).

Take `Cc1nccn1CC(O)c1ccc(Br)cc1` (configuration not stated): the “-logMIC” value is on record as 2.35 and the MIC came to 200 µg/mL (≈ 711 µM).

In the case of `O=C(Cn1ccnc1)c1ccc(Cl)cc1`, the “-logMIC” value was determined as 2 and the MIC worked out at 100 µg/mL (≈ 453 µM).

Turning to `Cc1ncc([N+](=O)[O-])n1CNc1cccc2ccccc12`, the “-logMIC” value is on record as 2 and the MIC turned out to be 100 µg/mL (≈ 354 µM).

Regarding `Cc1nccn1CC(O)c1ccc([N+](=O)[O-])cc1` (configuration not stated), the “-logMIC” value was 2.39 and the minimal inhibitory concentration (MIC) was 300 µg/mL (≈ 1210 µM).

`Cc1ncc([N+](=O)[O-])n1CCOC(c1ccccc1)c1cccs1` (configuration not stated): the “-logMIC” value is recorded as 2.6 and the MIC was found to be 400 µg/mL (≈ 1160 µM).

Take `Cc1ncc([N+](=O)[O-])n1CNc1ccccc1`: the “-logMIC” value was determined as 1.94 and the MIC came out at 100 µg/mL (≈ 431 µM).

For `Cc1nc([N+](=O)[O-])cn1CC(=O)CNc1ccccc1`, the “-logMIC” value is listed as 2.6 and the MIC is 400 µg/mL (≈ 1460 µM).

Consider `Cc1ncc([N+](=O)[O-])n1CCNC(C)C`, for which the “-logMIC” value is reported as 1.39 and the MIC was 25 µg/mL (≈ 118 µM).

`Cc1ccccc1OCC(O)Cn1c([N+](=O)[O-])cnc1C` (configuration not stated): the “-logMIC” value was 2 and the minimum inhibitory concentration (MIC) was found to be 100 µg/mL (≈ 343 µM).

Consider `Cc1nc([N+](=O)[O-])cn1CC(CNc1ccccc1)Nc1ccccc1` (configuration not stated), for which the “-logMIC” value came out at 2.3 and the minimum inhibitory concentration (MIC) is 200 µg/mL (≈ 569 µM).

As for `Cc1nccn1CC(=O)c1ccc(Cl)cc1`, the “-logMIC” value was 2.26 and the MIC amounted to 200 µg/mL (≈ 852 µM).

In the case of `Cc1ncc([N+](=O)[O-])n1CCN(C(C)C)C(C)C`, the “-logMIC” value is 1.38 and the minimal inhibitory concentration (MIC) amounted to 25 µg/mL (≈ 98.3 µM).

Consider `Cc1ncc([N+](=O)[O-])n1CC(O)COc1ccccc1` (configuration not stated), for which the “-logMIC” value is 2.06 and the minimal inhibitory concentration (MIC) was determined as 100 µg/mL (≈ 361 µM).

Take `O=[N+]([O-])c1ccc(-c2cnc(S)n2NC(=S)Nc2cccc3ccccc23)cc1`: the “-logMIC” value was found to be 2.7 and the minimal inhibitory concentration (MIC) was above 500 µg/mL.

Turning to `Cc1ccccc1NC(=S)Nn1c(-c2ccc([N+](=O)[O-])cc2)cnc1S`, the “-logMIC” value is 1.5 and the MIC worked out at 31.2 µg/mL (≈ 81.1 µM).

For the compound `Cc1nccn1CC(=O)c1ccc(-c2ccccc2)cc1`, the “-logMIC” value was determined as 2.48 and the MIC is 300 µg/mL (≈ 1090 µM).

As for `Cc1ncc([N+](=O)[O-])n1CCNc1ccccc1`, the “-logMIC” value came out at 1.7 and the MIC was 50 µg/mL (≈ 203 µM).

As to `COc1ccccc1NC(=S)Nn1ccnc1-c1ccc(Br)cc1`, the “-logMIC” value was 2.4 and the MIC was determined as 250 µg/mL (≈ 620 µM).

Consider `Cc1ncc([N+](=O)[O-])n1CC(=O)Nc1cccc(O)c1`, for which the “-logMIC” value is listed as 2.9 and the MIC was determined as 800 µg/mL (≈ 2900 µM).

For `Cc1nc([N+](=O)[O-])cn1CCC(=O)Nc1ccccc1S`, the “-logMIC” value was determined as 2.68 and the minimal inhibitory concentration (MIC) was 500 µg/mL (≈ 1630 µM).

On to `Cc1ncc([N+](=O)[O-])n1CC(O)COc1ccc2ccccc2c1` (configuration not stated), for which the “-logMIC” value is recorded as 2.69 and the minimal inhibitory concentration (MIC) was found to be 500 µg/mL (≈ 1530 µM).

Take `Cc1ncc([N+](=O)[O-])n1CC(O)CNCC(C)C` (configuration not stated): the “-logMIC” value is 1.99 and the MIC is 100 µg/mL (≈ 390 µM).

For the compound `Cc1ncc([N+](=O)[O-])n1CCNc1ccc([N+](=O)[O-])cc1`, the “-logMIC” value is given as 1.1 and the minimal inhibitory concentration (MIC) was found to be 12.5 µg/mL (≈ 42.9 µM).

Take `Cc1nc([N+](=O)[O-])cn1CCC(=O)Nc1ccccc1[N+](=O)[O-]`: the “-logMIC” value came out at 2.95 and the minimum inhibitory concentration (MIC) was determined as 1000 µg/mL (≈ 3130 µM).

Take `CCCCNCC(O)Cn1c([N+](=O)[O-])cnc1C` (configuration not stated): the “-logMIC” value turned out to be 1.99 and the MIC came to 100 µg/mL (≈ 390 µM).

For the compound `Cc1nccn1CC(=O)c1ccc(Br)cc1`, the “-logMIC” value is on record as 2.48 and the MIC was 300 µg/mL (≈ 1070 µM).

Turning to `S=C(Nc1cccc2ccccc12)Nn1ccnc1-c1ccc(Br)cc1`, the “-logMIC” value came to 2.01 and the MIC came out at 100 µg/mL (≈ 236 µM).
